Tests used:
[1] = test system: Streptococcus mutans NBRC13955; test: Antimicrobial test on oral bacteria, bactericidal effect test; type: cell-based; conditions: for bactericidal action on Streptococcus mutans cells: one minute
Procedure: Antimicrobial Test on Oral Bacteria
1. Antimicrobial Action on Streptococcus mutans
The antimicrobial effect of two types of test substances (Compound 3 and Compound 7) on Streptococcus mutans was evaluated.
1) Preparation of Test Microbe
A microbe strain (Streptococcus mutans NBRC13955) cryopreserved was cultured in TSA medium at 36±1° C. for 18 to 24 hours. The cultured microbial cells were transferred to a fresh TSA medium and cultured at 36±1° C. for 18 to 24 hours. The grown colonies were scraped out and suspended in sterile ion-exchange water to prepare a solution having about 10^7 CFU/mL, which was used as a test microbe solution.
2) Preparation of Test Solution […]
3) Bactericidal Effect Test
From individual test solutions previously kept at 25±2° C., an aliquot (10 mL) was dispensed to centrifuge tubes of 50 mL in volume. To each of the centrifuge tubes, the test microbe solution (0.1 mL) was inoculated, mixed and allowed to react. After a predetermined reaction time, the resultant test solution (1 mL) was taken out. To this, 9 mL of a deactivator (SCDLP medium (manufactured by Eiken Chemical Co., Ltd.), which was confirmed as effective deactivator), was added to inactivate the bactericidal component of the test solution. The number of microbial cells in the resultant sample solution was determined. The solution obtained by carrying out the same procedure except that a sterile physiological saline was used in place of the test solution, was used as a control.
4) Determination of the Number of Microbial Cells
Using the sample solution as a stock solution, serial dilution was performed with a sterile physiological saline to obtain 10-fold serial dilutions. 1 mL of the sample solution or each of the dilutions was aseptically transferred to a petri dish, mixed with TSA medium (20 mL), solidified and cultured at 36±2° C. for 48 hours. After the culture, colonies grown on the medium were counted to obtain the number of test microbe cells per test solution (1 mL) (lower limit of quantification: 10 CFU/test solution (1 mL)).

[2] = test system: caspase 3/7 in A549 cells (human lung cancer, adenocarcinoma); test: Test of inducing apoptosis of A549 cells (caspase 3/7 activity); type: cell-based; conditions: 5 hours
Procedure: (Test of Inducing Apoptosis of A549 Cells (Human Lung Cancer, Adenocarcinoma))
To evaluate apoptosis induction of a sample (Compound 3), the activity of caspase 3/7 was measured.
1. Measurement Reagents, Equipment and Instruments
APO-ONE Homogeneous Caspase-3/7 Assay (G7790, Lot No. 314408; Promega)
Fluorescence plate reader (SpectraMax GEMINI EM; Molecular Devices)
Cells: A549 cells (obtained from the Research Resource Bank of the Human Sciences Foundation)
Medium: 10% FBS and 0.1 mmol/L Non-Essential Amino Acids Solution-containing MEM medium
A 1 mmol/L solution prepared with DMSO was prepared with a medium so as to have a final concentration (the final concentration of DMSO was set to be 0.1%).
A sample was weighed and a medium was added so as to obtain 500 μg/mL. While warming at 37° C., sonication was performed for 60 minutes to make dissolution. Filtration was performed by a 0.22 μm-filter. The 500 μg/mL solution was subjected to serial dilution in a common ratio of 10 with the medium to prepare 50, 5, 0.5, 0.05 and 0.005 μg/mL.
(1) (The day before test)
On a 96-well plate, A549 cells were seeded in a ratio of 10000 cells/100 μL/well. […]
(4) Reaction was performed at room temperature while blocking light. Two hours later, fluorescence was measured (excitation wavelength: 499 nm, fluorescence wavelength: 521 nm)

| SMILES | number of test microbe cells ([1]; 0.001 w/v %, working time 1 min) | number of test microbe cells ([1]; 0.001 w/v %, working time 5 min) | bactericidal action on Streptococcus mutans cells ([1]; 0.005 w/v %) | number of test microbe cells ([1]; 0.005 w/v %, working time 1 min) | number of test microbe cells ([1]; 0.005 w/v %, working time 5 min) | number of the cells reduced (fraction) ([1]; 0.01 w/v %, 5 minutes) | number of test microbe cells ([1]; 0.01 w/v %, working time 1 min) | number of test microbe cells ([1]; 0.01 w/v %, working time 5 min) | bactericidal action on Streptococcus mutans cells ([1]; 0.05 w/v %) | number of test microbe cells ([1]; 0.05 w/v %, working time 1 min) | number of test microbe cells ([1]; 0.05 w/v %, working time 5 min) | caspase 3/7 activity ([2]; 0.005 μg/mL to 5 μg/mL) | caspase 3/7 activity ([2]; all concentrations 0.005 μg/mL to 500 μg/mL) |
| --- | --- | --- | --- | --- | --- | --- | --- | --- | --- | --- | --- | --- | --- |
| O=C(Oc1ccc(S(F)(F)(F)(F)F)cc1)c1cc(O)c(O)c(O)c1 [Compound 7, 4-(3,4,5-trihydroxybenzoyloxy)pentafluorosulfanylbenzene] | 460,000 CFU/test solution (1 mL) | 280,000 CFU/test solution (1 mL) | almost completely killed | <10 CFU/test solution (1 mL) | <10 CFU/test solution (1 mL) | – | – | – | – | – | – | – | – |
| O=C(Nc1ccc(S(F)(F)(F)(F)F)cc1)c1cc(O)c(O)c(O)c1 [Compound 3, 4-(3,4,5-trihydroxybenzoylamino)pentafluorosulfanylbenzene] | – | – | – | – | – | 1/10 | 380,000 CFU/test solution (1 mL) | 34,000 CFU/test solution (1 mL) | almost completely killed | <10 CFU/test solution (1 mL) | <10 CFU/test solution (1 mL) | high activity was observed | tends to enhance caspase 3/7 activity |
